Numbered stars: 1 amine (or outer) side, 2 acyl side, 3 side chain; on linkers, the order of the positions; unused ones are H or OH. Bridge positions count the residues as written; N and C are the ends. Square brackets hold non-standard residues; d marks the D form. Peptide text beside a SMILES is read from it. * marks the point of attachment. pTerphenylCO(4''-OnC5H11) = CCCCCOc1ccc(-c2ccc(-c3ccc(C(=O)*)cc3)cc2)cc1; Orn(4R-OH,5R-OH) = O=C([C@H](C[C@@H](O)[C@@H](O)N[*:3])N[*:1])[*:2]; hTyr(3S-OH,4S-OH) = N[C@H](C(=O)O)[C@H](O)[C@@H](O)c1ccc(O)cc1; Pro(3S-OH,4S-Me) = C[C@H]1CN[C@H](C(=O)O)[C@H]1O; Hyp = O=C(O)[C@@H]1C[C@@H](O)CN1
Legend:
[1] = tested on: Candida albicans; assay: Selectivity ratio of Ki for Candida albicans 89 1,3-beta-D-glucan synthase subunit FKS1p C1934A mutant to Ki for Candida albicans SC5314 wild type 1,3-beta-D-glucan synthase subunit FKS1p
[2] = tested on: Candida albicans; assay: Selectivity ratio of Ki for Candida albicans 5415 1,3-beta-D-glucan synthase subunit FKS1p T1933C mutant to Ki for Candida albicans SC5314 wild type 1,3-beta-D-glucan synthase subunit FKS1p
[3] = tested on: Candida albicans; assay: Selectivity ratio of Ki for Candida albicans 119 1,3-beta-D-glucan synthase subunit FKS1p T1921C mutant to Ki for Candida albicans SC5314 wild type 1,3-beta-D-glucan synthase subunit FKS1p
[4] = tested on: Candida albicans; assay: Selectivity ratio of Ki for Candida albicans 149 1,3-beta-D-glucan synthase subunit FKS1p G1942T mutant to Ki for Candida albicans SC5314 wild type 1,3-beta-D-glucan synthase subunit FKS1p

Measured: Ratio Ki

CCCCCOc1ccc(-c2ccc(-c3ccc(C(=O)N[C@H]4C[C@@H](O)[C@@H](O)NC(=O)[C@@H]5[C@@H](O)[C@@H](C)CN5C(=O)[C@H]([C@@H](C)O)NC(=O)[C@H]([C@H](O)[C@@H](O)c5ccc(O)cc5)NC(=O)[C@@H]5C[C@@H](O)CN5C(=O)[C@H]([C@@H](C)O)NC4=O)cc3)cc2)cc1 [ANIDULAFUNGIN] ({pTerphenylCO(4''-OnC5H11)}-[Orn(4R-OH,5R-OH)]T[Hyp][hTyr(3S-OH,4S-OH)]T[Pro(3S-OH,4S-Me)]; lactam 1-C)
> 100: all assays above

From ChEMBL document CHEMBL1629579, “Correlating echinocandin MIC and kinetic inhibition of fks1 mutant glucan synthases for Candida albicans: implications for interpretive breakpoints” (Antimicrob Agents Chemother, 2009)
